Assay results published in ChEMBL document CHEMBL1201862, “PubChem BioAssay data set” (2004).
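48-hour exposure; five concentrations; linearly interpolated endpoints. GI50 marks 50% less growth.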 Activity calls are given as the source filed them. No stated cut-off is given here; in the data, active = GI50 up to about 1.1 µM and inactive = higher.

Assays:
Assay in all cases: NCI anticancer screen, dose series, 48 h
CAKI-1 = system: CAKI-1
CCRF-CEM = system: CCRF-CEM
DU-145 = system: DU-145
HCT-116 = system: HCT-116
HL-60 = system: HL-60
K562 = system: K562
M14 = system: M14
MCF7 = system: MCF7
NCI-H23 = system: NCI-H23
OVCAR-3 = system: OVCAR-3
SF-295 = system: SF-295
SNB-75 = system: SNB-75
SR = system: SR
T47D = system: T47D
TK-10 = system: TK-10
UO-31 = system: UO-31
HCC 2998 = system: HCC 2998

| SMILES | GI50 (CAKI-1) | GI50 (CCRF-CEM) | GI50 (DU-145) | GI50 (HCT-116) | GI50 (HL-60) | GI50 (K562) | GI50 (M14) | GI50 (MCF7) | GI50 (NCI-H23) | GI50 (OVCAR-3) | GI50 (SF-295) | GI50 (SNB-75) | GI50 (SR) | GI50 (T47D) | GI50 (TK-10) | GI50 (UO-31) | GI50 (HCC 2998) |
| --- | --- | --- | --- | --- | --- | --- | --- | --- | --- | --- | --- | --- | --- | --- | --- | --- | --- |
| COc1ccc(C2NC(=O)Nc3c2c(=O)oc2c3ccc3ccccc32)cc1 (stereo not drawn) | 52.8 µM (inactive) | 37 µM (inactive) | > 100 µM (inactive) | 75.9 µM (inactive) | 70.8 µM (inactive) | 48.1 µM (inactive) | 37.6 µM (inactive) | 66.2 µM (inactive) | 52.6 µM (inactive) | 92.9 µM (inactive) | 51.4 µM (inactive) | 22.3 µM (inactive) | 50 µM (inactive) | 31.1 µM (inactive) | 74.3 µM (inactive) | 52.7 µM (inactive) | – |
| CCOC(=O)C1(F)S(=O)(=O)OCCOS1(=O)=O | > 100 µM (inactive) | – | > 100 µM (inactive) | > 100 µM (inactive) | – | – | > 100 µM (inactive) | > 100 µM (inactive) | > 100 µM (inactive) | > 100 µM (inactive) | > 100 µM (inactive) | > 100 µM (inactive) | > 100 µM (inactive) | > 100 µM (inactive) | > 100 µM (inactive) | > 100 µM (inactive) | > 100 µM (inactive) |
| COC(=O)CC[N+]1([O-])CC1 | – | > 100 µM (inactive) | > 100 µM (inactive) | > 100 µM (inactive) | > 100 µM (inactive) | – | > 100 µM (inactive) | > 100 µM (inactive) | > 100 µM (inactive) | – | > 100 µM (inactive) | > 100 µM (inactive) | > 100 µM (inactive) | > 100 µM (inactive) | > 100 µM (inactive) | > 100 µM (inactive) | > 100 µM (inactive) |
| CCOP(=O)(OCC)/C(C#N)=C/c1ccnc2ccccc12 | 24 µM (inactive) | – | 34.8 µM (inactive) | 3.27 µM (inactive) | – | – | 20.1 µM (inactive) | 18.8 µM (inactive) | 24.3 µM (inactive) | 20.3 µM (inactive) | 24.2 µM (inactive) | 25.9 µM (inactive) | 21.9 µM (inactive) | 55 µM (inactive) | 47.1 µM (inactive) | < 0.01 µM (active) | > 100 µM (inactive) |
| Nn1c(S)nnc1CCCCCCCCc1nnc(S)n1N | > 100 µM (inactive) | 90.8 µM (inactive) | > 100 µM (inactive) | > 100 µM (inactive) | > 100 µM (inactive) | > 100 µM (inactive) | > 100 µM (inactive) | > 100 µM (inactive) | > 100 µM (inactive) | > 100 µM (inactive) | > 100 µM (inactive) | > 100 µM (inactive) | > 100 µM (inactive) | > 100 µM (inactive) | – | > 100 µM (inactive) | > 100 µM (inactive) |
| O=C(O)c1ccccc1Sc1ccccc1[N+](=O)[O-] | > 100 µM (inactive) | > 100 µM (inactive) | > 100 µM (inactive) | > 100 µM (inactive) | > 100 µM (inactive) | > 100 µM (inactive) | > 100 µM (inactive) | > 100 µM (inactive) | > 100 µM (inactive) | > 100 µM (inactive) | > 100 µM (inactive) | 76.9 µM (inactive) | – | > 100 µM (inactive) | > 100 µM (inactive) | > 100 µM (inactive) | > 100 µM (inactive) |
| Cn1cc(NC(=O)Nc2cc(C(=O)Nc3cc(C(=O)Nc4cc(S(=O)(=O)O)c5cc(S(=O)(=O)O)cc(S(=O)(=O)O)c5c4)n(C)c3)n(C)c2)cc1C(=O)Nc1cc(C(=O)Nc2cc(S(=O)(=O)O)c3cc(S(=O)(=O)O)cc(S(=O)(=O)O)c3c2)n(C)c1 | – | > 100 µM (inactive) | > 100 µM (inactive) | > 100 µM (inactive) | > 100 µM (inactive) | > 100 µM (inactive) | > 100 µM (inactive) | > 100 µM (inactive) | > 100 µM (inactive) | > 100 µM (inactive) | > 100 µM (inactive) | 50.1 µM (inactive) | > 100 µM (inactive) | > 100 µM (inactive) | 87.1 µM (inactive) | 78.5 µM (inactive) | > 100 µM (inactive) |
| O=C(O)Cc1cccc2c(=O)c3ccccc3oc12 | > 100 µM (inactive) | > 100 µM (inactive) | > 100 µM (inactive) | > 100 µM (inactive) | > 100 µM (inactive) | > 100 µM (inactive) | > 100 µM (inactive) | > 100 µM (inactive) | > 100 µM (inactive) | > 100 µM (inactive) | > 100 µM (inactive) | – | > 100 µM (inactive) | 19.1 µM (inactive) | > 100 µM (inactive) | > 100 µM (inactive) | 22 µM (inactive) |
| Cc1cn(C2CC(OP(=O)(O)OCC3OC(n4c[n+]([BH2-]C#N)c5c(=O)[nH]c(N)nc54)CC3O)C(CO)O2)c(=O)[nH]c1=O (stereo not drawn) | > 100 µM (inactive) | > 100 µM (inactive) | > 100 µM (inactive) | > 100 µM (inactive) | > 100 µM (inactive) | > 100 µM (inactive) | > 100 µM (inactive) | > 100 µM (inactive) | > 100 µM (inactive) | > 100 µM (inactive) | > 100 µM (inactive) | > 100 µM (inactive) | > 100 µM (inactive) | > 100 µM (inactive) | – | > 100 µM (inactive) | > 100 µM (inactive) |
